Reference: patent US6603023B2 (priority 1996, dated 2003)
Read-outs that look alike come from different tables or passages of the source. Marks after values point to notes of the source that are not given here.

Assays:
[1] = test system: MDR human mammary adenocarcinoma MCF-7/Adr xenograft; test: in vivo; conditions: for toxicity: dEpoB 35 mg/kg Q2Dx5 i.p.
Description: (§1) DMSO was used as a vehicle for epothilones. Each mouse received ≦40 μL DMSO in all experiments.
(§2) Athymic nude mice (nu/nu) were used for MX-1 and MCF-7/Adr human mammary carcinoma xenografts. Mice were obtained from Taconic Laboratory Animals and Service (Germantown, N.Y.: outbred, Swiss background).

[2] = Stability in human plasma (HPLC); type: in vitro ADME
Description: Sample Preparation. To 300 microliters of spiked plasma are added 30 microliters of methanol. The mixture is agitated and allowed to stand for 2 minutes. Then 600 microliters of methanol are added. The mixture is centrifuged. The supernatant is removed for analysis by HPLC. Analyses were performed under the following chrmotographic conditions: Column: Nova-Pak C18, 15 cm. Eluant: 50% acetonitrile/water with 0.8% triethylamine, 0.2% phosphoric acid. Detection: UV (250 nm).

B16 Melanoma = type: in vivo, B6D2F1 mice
in vivo = conditions: male, athymic nude (nu/nu), outbred, Swiss background, mouse, in vivo, ip
Description: as §1, §2

[3] = 35 mg/kg i.p. Q2Dx5 from day 8, day 11
[4] = 35 mg/kg i.p. Q2Dx5 from day 8, day 13
[5] = 35 mg/kg i.p. Q2Dx5 from day 8, day 15
[6] = 35 mg/kg i.p. Q2Dx5 from day 8, day 17
[7] = 10 mg/kg QD × 8 from day 1, day 5
[8] = 10 mg/kg QD × 8 from day 1, day 7
[9] = 10 mg/kg QD × 8 from day 1, day 9
[10] = 10 mg/kg QD × 8 from day 1, day 11
[11] = MCF-7/Adr Breast, dEpoB 30 mg/kg Q2D x 5, Taxol 24 mg/kg Q2D x 5
[12] = Taxol 24 mg/kg, 6 hr i.v. infusion Q2D x 5 (day 8-16)
[13] = dEpo B 30, Taxol 15 mg/kg, 6 hr i.v. infusion Q2D x 5 (day 8-16)
[14] = high doses: Taxol 12, Adriamycin 3, Camptothecin 3.0 mg/kg i.p. day 8,10,12,14,16
[15] = male, athymic nude (nu/nu), outbred, Swiss background, mouse, in vivo
[16] = 0.4 mg/kg QD × 6 from day 1, day 5
[17] = 0.4 mg/kg QD × 6 from day 1, day 9
[18] = 0.4 mg/kg QD × 6 from day 1, day 11
[19] = 0.8 mg/kg QD × 5 from day 1, day 5
[20] = 0.8 mg/kg QD × 5 from day 1, day 7
[21] = 0.8 mg/kg QD × 5 from day 1, day 11

## C/C1=C/C[C@@H](/C(C)=C/c2csc(C)n2)OC(=O)C[C@H](O)C(C)(C)C(=O)[C@H](C)[C@@H](O)[C@@H](C)CCC1 [Desoxyepothilone B, desoxyepothilone B]
[1]; 35 mg/kg i.p. Q2Dx5 from day 8
  Toxicity Death: 0/8
[1]; [3]
  Average Body Weight Change: 0.3 g
  Average Tumor Size (T/C): 0.31**
[1]; [4]
  Average Body Weight Change: +0.7 g
  Average Tumor Size (T/C): 0.27***
[1]; [5]
  Average Body Weight Change: +0.6 g
  Average Tumor Size (T/C): 0.30***
[1]; [6]
  Average Body Weight Change: +0.8 g
  Average Tumor Size (T/C): 0.34*
[1]; 35 mg/kg, day 17
  tumor size reduction: 66%
[1]; 6 hr i.v. infusion, Q2Dx5
  therapeutic outcome: far better than Taxol®, although Q2Dx5 did not achieve a cure
[1]; listed as dEpoB
  toxicity: negligible toxicity
[1]; listed as desoxyepothilone B
  toxicity: no reduction in body weight or apparent toxicity
[1]; mouse, in vivo
  Average Body Weight (change), Day 14: -2.7 g
  Average Body Weight (change), Day 16: -4.0 g
  Average Body Weight (change), Day 18: -4.5 g
  Average Body Weight, Day 8: 30.3 g
  Average Tumor Size (T/C), Day 14: 0.16*** T/C
  Average Tumor Size (T/C), Day 16: 0.15 T/C
  Average Tumor Size (T/C), Day 18: 0.13*** T/C
  Lowest Average Tumor Size (T/C): 0.11 T/C
  Therapeutic Effects dEpoB vs Taxol: >>
  Toxicity Death: 0/3
  Tumor Disappearance: 0
[1]; mouse, in vivo, ip
  Therapeutic effect Rank Order: dEpoB >> Camptothecin >
[1]; mouse, in vivo, iv
  Therapeutic effect Rank Order: dEpoB >> VP-16,
[2]
  half-life in human plasma: about 75 hours
B16 Melanoma; 10 mg/kg QD × 8 from day 1
  # Mice Died: 0/6
B16 Melanoma; 10 mg/kg QD × 8 from day 1, day 3
  Average weight change: -0.7 g
B16 Melanoma; [7]
  Average Tumor Volume (T/C): 0.23
  Average weight change: -0.9 g
B16 Melanoma; [8]
  Average Tumor Volume (T/C): 0.22
  Average weight change: -1.1 g
B16 Melanoma; [9]
  Average Tumor Volume (T/C): 0.51
  Average weight change: -1.5 g
B16 Melanoma; [10]
  Average Tumor Volume (T/C): 0.28
  Average weight change: -0.3 g
B16 Melanoma; 10 mg/kg QDx8 from day 1 (FIG. 44)
  mice died: 0 of 8
B16 Melanoma; 20 mg/kg QD1-4,7-8
  # Mice Died: 0/6
B16 Melanoma; 20 mg/kg QD1-4,7-8, day 3
  Average weight change: -1.3 g
B16 Melanoma; 20 mg/kg QD1-4,7-8, day 5
  Average Tumor Volume (T/C): 0.59
  Average weight change: -2.2 g
B16 Melanoma; 20 mg/kg QD1-4,7-8, day 7
  Average Tumor Volume (T/C): 0.63
  Average weight change: -1.3 g
B16 Melanoma; 20 mg/kg QD1-4,7-8, day 9
  Average Tumor Volume (T/C): 0.58
  Average weight change: -1.6 g
B16 Melanoma; 20 mg/kg QD1-4,7-8, day 11
  Average weight change: -0.8 g
B16 Melanoma; mouse, in vivo, ip
  Therapeutic effect Rank Order: dEpoB > Taxol ® >> EpoB

## CC(=O)O[C@H]1C(=O)[C@@]2(C)[C@H]([C@H](OC(=O)c3ccccc3)[C@]3(O)C[C@H](OC(=O)[C@H](O)[C@@H](NC(=O)c4ccccc4)c4ccccc4)C(C)=C1C3(C)C)[C@]1(OC(C)=O)CO[C@@H]1C[C@@H]2O [Taxol ®, paclitaxel]
In vivo
  LD50: 12 mg/kg
[1]; [11]
  Lowest Average Tumor Size (T/C): 0.71 T/C
  Tumor Disappearance: 0
[1]; Taxol 6 mg/kg i.p. Q2Dx5, day 17
  tumor size reduction: 100%
[1]; [12]
  Average Body Weight (change), Day 14: -4.8 g
  Average Body Weight (change), Day 16: -5.3 g
  Average Body Weight (change), Day 18: -6.0 g
  Average Tumor Size (T/C), Day 14: 0.73 T/C
  Average Tumor Size (T/C), Day 16: 0.71* T/C
  Average Tumor Size (T/C), Day 18: 0.73* T/C
[1]; [13]
  Average Tumor Size (T/C), Day 14: 0.81 T/C
  Average Tumor Size (T/C), Day 16: 0.89 T/C
  Average Tumor Size (T/C), Day 18: 0.76 T/C
[1]; [14]
  Average Tumor Volume (T/C), Day 11: 0.50 T/C
  Average Tumor Volume (T/C), Day 13: 0.51 T/C
  Average Tumor Volume (T/C), Day 15: 0.32 T/C
  Average Tumor Volume (T/C), Day 17: 0.40 T/C
[1]; [15]
  Toxicity Death: 0/4
  lethality: 3/7
[1]; paclitaxel 5 mg/kg (so in the source)
  tumor growth suppression: slight growth suppression

## C/C(=C\c1csc(C)n1)[C@@H]1C[C@@H]2O[C@]2(C)CCC[C@H](C)[C@H](O)[C@@H](C)C(=O)C(C)(C)[C@@H](O)CC(=O)O1 [Epothilone B, epothilone B]
B16 Melanoma; 0.4 mg/kg QD × 6 from day 1
  # Mice Died: 1/8
B16 Melanoma; 0.4 mg/kg QD × 6 from day 1, day 3
  Average weight change: -0.2 g
B16 Melanoma; [16]
  Average Tumor Volume (T/C): 1.08
  Average weight change: -0.6 g
B16 Melanoma; 0.4 mg/kg QD × 6 from day 1, day 7
  Average weight change: -1.1 g
B16 Melanoma; [17]
  Average Tumor Volume (T/C): 1.27
  Average weight change: -3.4 g
B16 Melanoma; [18]
  Average Tumor Volume (T/C): 1.07
  Average weight change: -3.9 g
B16 Melanoma; 0.4 mg/kg QDx6 from day 1 (FIG. 44)
  mice died of toxicity: 1 of 8
B16 Melanoma; 0.8 mg/kg QD × 5 from day 1, day 3
  Average weight change: 0 g
B16 Melanoma; [19]
  Average Tumor Volume (T/C): 0.57
  Average weight change: -0.8 g
B16 Melanoma; [20]
  Average Tumor Volume (T/C): 0.89
  Average weight change: -3.1 g
B16 Melanoma; 0.8 mg/kg QD × 5 from day 1, day 9
  Average weight change: -4.7 g
B16 Melanoma; [21]
  Average Tumor Volume (T/C): 0.21
  Average weight change: -4.7 g
B16 Melanoma; 0.8 mg/kg QDx5 from day 1 (FIG. 44)
  mice died: 5 of 8
